Assay results from patent publication US20100227841A1, “Patient populations and treatment methods” (Harbor BioSciencs, Inc., priority 2008, published 2010).

Tests used:
[1] = tested on: Zucker Diabetic Fatty (ZDF) rats; assay: Zucker Diabetic Fatty (ZDF) rat study (glucose, clamp, adipose histology, lipid profiles); type: in vivo
Method: The study was staggered into 6 cohorts conducted on different days. Forty-two male Zucker Diabetic Fatty (ZDF) rats and six Zucker Fatty rats at 7-week of age were obtained from Charles River laboratories (Wilmington, Mass.). The rats were housed individually in polycarbonate cages in a temperature-controlled room on a 12 h: 12 h light: dark cycle with the lights on at 0600 h. Rats were fed ad libitum except during the experiments. After one week of acclimation to environmental conditions, the ZDF rats began daily oral treatment for 32 to 35 days with vehicle (n=18), 100 mg/kg/day 17α-ethynylandrost-5-ene-3β,7β,17β-triol (n=15), or 10 mg/kg/day rosiglitazone (n=9).
Glucose levels were measured using a One-Touch glucometer (Lifescan). Extra serum samples were collected for free fatty acid (FFA), free glycerol, pyruvate, and lactate measurements. Glucose, insulin and pyruvate tolerance tests were performed on 6 hr fasted rats. For GTT, animals were orally gavaged with glucose (1 g/kg), whereas for ITT, 0.35 units/kg insulin (Novolin R, Novo-Nordisk) was injected intraperitoneally. Blood samples were taken at basal and 15, 30, 60, 90 and 120 min after injection. For the pyruvate tolerance test (PTT), 1 g/kg of pyruvate was used.
Dual jugular venous cannulae and one carotid arterial cannula were implanted in rats. The rats were allowed to recover for 4 to 5 days before clamp procedure. The hyperinsulinemic euglycemic clamp experiments began with a priming injection (7.5 μCi/0.2 ml) and constant infusion (0.25 μCi/min) of D-[3-^3H] glucose (Du Pont-NEN, Boston, Mass.). After 60 min of tracer equilibration and basal sampling at t=−10 and 0 min, glucose (50% dextrose, variable infusion; Abbott) and tracer (0.25 μCi/min) plus insulin ([…]) were infused into the jugular vein. Small blood samples were drawn at 10-min intervals and immediately analyzed for glucose to maintain the integrity of the glucose clamp throughout the duration of the experiment. Blood samples were taken at t=−60 (start of experiment), −10, 0 (basal), 110, and 120 (end of experiment) min to determine glucose-specific activity and insulin, and free fatty acid (FFA). To ensure accuracy, basal and terminal sampling was performed twice at 10-min intervals. The achievement of steady-state conditions (100 mg/dl±5 mg/dl) was confirmed at the end of the clamp by measuring blood glucose every 10 min and ensuring that steady state for glucose infusion and plasma glucose levels were maintained for a minimum of 20 min. All blood samples were immediately centrifuged, and plasma was stored at −80° C. for subsequent analysis.
Following a 3-day recovery after clamp, rats were fasted 6 hours and euthanized. Tissues were harvested at basal state or acute insulin-stimulated state (5 U/kg). Insulin levels were analyzed by ELISA assay (Alpco Diagnostics). FFA levels were measured by enzymatic assay (Wako Diagnostics). Glycerol levels were measured using an assay kit from Sigma. Lactate and pyruvate assay kits were obtained from Biovision. TNFα and IL-1βwere measured by ELISA assays (Biosource).
Immunohistochemistry and quantification of crown-like structure (CLS) were done. These studies were conducted using paraffin-embedded adipose (epididymal) tissue sections from the rats incubated with MAC-2 antibody (Abcam) at a 1:100 dilution overnight at 4° C. Subsequently, biotinylated anti-rat secondary antibody (BD Bioscience) was used at 1:100 dilution, followed by 1:500 HRP-Streptavidin (Jackson ImmunoResearch) and development in substrate chromogen. Slides were counterstained with Mayer's and mounted with Vectashield mounting media with DAPI (Vector). Both bright field (MAC-2) and fluorescent photographs (DAPI) were taken of 3 representative fields per slide in a blinded fashion using a fluorescent microscope (10× objective).
Gene expression analyses used total RNA extracted from tissue with Purelink total RNA purification system (Invitrogen) following the manufacturer's protocol.

CCR2 / MCP1 = assay: Effects of treatment on CCR2 expression and circulating MCP1; type: in vivo
Description: The treatment methods described herein may involve treating patient subsets having elevated MCP1 (monocyte chemoattractant protein 1, or sometimes referred to as CCL2, which is CC chemokine receptor 2 ligand). CC chemokine receptor 2 (CCR2) is the receptor for MCP1. […] These effects are consistent with biological responses that correspond to reduced progression and/or at least partial reversal of cardiovascular plaque accumulation. That provides a basis for treating, e.g., slowing the progression, of arteriosclerosis and atherosclerosis. Such treatments would be effective in patients having a dyslipidemia such as hypercholesterolemia and/or hypertriglyceridemia with or without also having an arteriosclerosis condition such as atherosclerosis. Such patients will preferably have BMI and fasting plasma insulin levels as described in the embodiments described below (e.g., in embodiment 1, 9, 10, 17 or 19), examples or original claims, e.g., a BMI of ≧28 and insulin of ≧4 μU/mL. Any of these patients may also have hyperglycemia or overt diabetes. Patients with elevated MCP1 are also treatable for preventing or reducing the severity of cardiovascular disease, including myocardial infarction.

[2] = ZDF rats, 100 mg/kg/d, throughout the study, one week sufficient
[3] = euglycemic-hyperinsulinemic clamp, triol 100 mg/kg/d, rosiglitazone 10 mg/kg/d (more robust)

## C#C[C@]1(O)CC[C@H]2[C@@H]3[C@@H](O)C=C4C[C@@H](O)CC[C@]4(C)[C@H]3CC[C@@]21C [17α-ethynylandrost-5-ene-3β,7β,17β-triol]
[1]; ZDF rats
  intracellular triacylglycerol (TAG) content in livers: marked decrease
[1]; ZDF rats, 100 mg/kg/d
  decrease in serum cholesteryl esters: 59%
  decrease in serum total cholesterol levels: 25%
  gross pathology of the kidneys due to diabetes: greatly ameliorated
  level of free cholesterol in epididymal white adipose tissue (WAT): reduced
  other major lipid classes in WAT: not significantly altered
  reduction of hepatic cholesteryl ester levels: 73%
  reduction of total cholesterol content in the liver: 15%
  serum free cholesterol levels: increase
[1]; ZDF rats, 100 mg/kg/d, one week of treatment
  plasma insulin levels: normalize
[1]; [2]
  fasting glucose levels: completely normalized
  fed glucose levels: completely normalized
[1]; ZDF rats, epididymal adipose tissue sections
  adipose tissue macrophage (ATM) content, Mac-2 staining: marked reduction
[1]; ZDF rats, gene expression
  HMG CoA reductase expression: increased
  low density lipoprotein receptor (LDLR) expression: increased
[1]; ZDF rats, p<0.05
  MCP-1 in adipose tissue: decrease
  TNFα in adipose tissue: decrease
[1]; clamp, triol 100 mg/kg/d, rosiglitazone 10 mg/kg/d
  Basal rates of hepatic glucose production (HGP): equally reduced
[1]; [3]
  glucose infusion rate: increase
  insulin-stimulated glucose disposal: increase
CCR2 / MCP1; in vivo
  expression levels of CCR2: decrease
CCR2 / MCP1; typically protein levels in serum, e.g. ELISA
  MCP1 in circulation: trend to decrease
